In US11452707B2, “Use of cannabidiol in preparation of drugs for resisting against influenza” (priority 2017, dated 2022):
Like-named read-outs stand apart in the source and are kept apart here.

Legend:
H1N1 WSN [1] = assay type: cell-based, influenza A virus H1N1; conditions: 24 h
H1N1 WSN (A/WSN/33) [2] = experiment: H1N1 WSN-infected mice: inflammatory cells in alveolar lavage fluid (Diff-Quick staining); assay type: in vivo, influenza A virus H1N1; conditions: DPI 8, 20 mg/kg/d; for number of macrophages in the alveolar lavage fluid: Tamiflu P<0.01, CBD P<0.001
H1N1 WSN (A/WSN/33) [3] = experiment: H1N1 WSN-infected mice: pulmonary vascular permeability test (Evans Blue); assay type: in vivo, influenza A virus H1N1; conditions: DPI 8; 20 mg/kg/d i.p. from Day 4; vs high toxicity group; Tamiflu P<0.05, CBD P<0.01
[4] = oral and systemic use; cited from earlier work
H5N1 [5] = assay type: cell-based, influenza A virus H5N1; conditions: 1 μM; 24 h
H1N1 WSN [6] = assay type: cell-based, influenza A virus H1N1; conditions: 24 h; remark: listed apart in the source
H1N1 WSN (A/WSN/33) [7] = experiment: H1N1 WSN-infected mice: pathological section of lung tissue (HE); assay type: in vivo, influenza A virus H1N1; conditions: DPI 8; 20 mg/kg/d i.p. from Day 4
IAV = system: IAV; set-up: species or system Influenza A Virus; conditions: in vivo
H5N1 [8] = system: H5N1; set-up: species or system influenza A virus H5N1; conditions: in vivo
[9] = system: H5N1 A/great black-headed gull/Qinghai/2009 (H5N1); set-up: species or system influenza A virus H5N1; conditions: in vivo, 20 mg/kg/day
H1N1 WSN (A/WSN/33) [10] = experiment: H1N1 WSN-infected mice: lung index; assay type: in vivo, influenza A virus H1N1; conditions: DPI 8; for lung injury index of mice caused by H1N1 WSN infection: 20 mg/kg/d i.p. from Day 4, vs high toxicity group, P<0.05
H1N1 = system: H1N1; set-up: species or system influenza A virus H1N1; conditions: in vivo
[11] = mouse, in vivo; cited from earlier work
H1N1 WSN (A/WSN/33) [12] = system: H1N1 WSN (A/WSN/33); set-up: species or system influenza A virus H1N1; conditions: in vivo; for activities of the infected mice / body temperature drop / body weight drop / discomfort caused by influenza / mice died / mice in group / mortality of mice caused by H1N1 WSN infection: ip, 20 mg/kg/day
[13] = of the 119 deaths; cited from earlier work

## C=C(C)[C@@H]1CCC(C)=C[C@H]1c1c(O)cc(CCCCC)cc1O [CBD, Cannabidiol]
H1N1 WSN [1]; 5 μM
  expression of NP gene in H1N1 WSN: significantly reduced
  expression of PA gene in H1N1 WSN: significantly reduced
  expression of PB1 gene in H1N1 WSN: significantly reduced
  expression of PB2 gene in H1N1 WSN: significantly reduced
H1N1 WSN (A/WSN/33) [2]
  number of neutrophils in the alveolar lavage fluid, compared with the Tamiflu group: very significant reduction
  number of macrophages in the alveolar lavage fluid: significantly reduced
H1N1 WSN (A/WSN/33) [2]; P<0.05
  number of macrophages in the alveolar lavage fluid, compared with the Tamiflu group: significant reduction
H1N1 WSN (A/WSN/33) [2]; vs IAV treatment group, P<0.01
  number of lymphocytes in the alveolar lavage fluid: significantly reduced
H1N1 WSN (A/WSN/33) [2]; vs high toxicity treatment group, P<0.001
  number of neutrophils in the alveolar lavage fluid: significantly reduced
H1N1 WSN (A/WSN/33) [3]
  mouse pulmonary capillary permeability caused by H1N1 WSN infection: significantly reduced
[4]
  severity of joint damage and the acute and chronic courses of arthritis: significantly reduce
H5N1 [5]
  expression of NP gene in H5N1: significantly reduced
  expression of PA gene in H5N1: significantly reduced
  expression of PB1 gene in H5N1: significantly reduced
  expression of PB2 gene in H5N1: significantly reduced
H1N1 WSN [6]; 5 μM
  expression of PA gene in H1N1 WSN: significantly reduced
  expression of PB1 gene in H1N1 WSN: significantly reduced
H1N1 WSN (A/WSN/33) [7]
  inflammatory cell infiltration (lung pathology): significantly reduced
IAV; 20 mg/kg/day
  mortality of mice caused by IAV infection: significantly inhibited
IAV; 60 mg/kg/day
  mortality of mice caused by IAV infection: significantly inhibited
H5N1 [8]
  mortality in mice caused by IAV infection: inhibited the same mortality
[9]
  activities of the infected mice: significantly increased
  discomfort caused by influenza: significantly alleviated
  mortality (mice died / mice in group): 10/10
  mortality compared with the influenza group: no significant difference
  survival time of mice after H5N1 infection prolonged by: 24 h
[9]; ip
  body temperature drop: significantly inhibited
  body weight drop caused by H5N1: Significantly Inhibited
H1N1 WSN (A/WSN/33) [10]
  lung injury index of mice caused by H1N1 WSN infection: significantly reduced
H1N1 WSN (A/WSN/33) [10]; both 20 mg/kg/d
  lung index, CBD group compared with Tamiflu group: no significant difference
H1N1
  mortality in mice caused by IAV infection: inhibited the same mortality
[11]
  LPS-induced acute lung injury: inhibits
H1N1 WSN (A/WSN/33) [12]
  mortality, CBD group compared with Tamiflu group: no significant difference
  activities of the infected mice: significantly increased
  body temperature drop: significantly inhibited
  body weight drop: significantly inhibited
  discomfort caused by influenza: significantly alleviated
  mice died / mice in group: 10/20
  mortality of mice caused by H1N1 WSN infection: significantly reduced

## CCOC(=O)C1=C[C@@H](OC(CC)CC)[C@H](NC(C)=O)[C@@H](N)C1 [Tamiflu, oseltamivir, reference compound]
H1N1 WSN [1]; 10 μM
  expression of NP gene in H1N1 WSN: no significant inhibitory effect
  expression of PA gene in H1N1 WSN: no significant inhibitory effect
  expression of PB1 gene in H1N1 WSN: no significant inhibitory effect
  expression of PB2 gene in H1N1 WSN: no significant inhibitory effect
H1N1 WSN (A/WSN/33) [2]
  number of macrophages in the alveolar lavage fluid: significantly reduced
H1N1 WSN (A/WSN/33) [3]
  mouse pulmonary capillary permeability caused by H1N1 WSN infection: significantly reduced
H5N1 [5]
  expression of NP gene in H5N1: significantly reduced
  expression of PA gene in H5N1: significantly reduced
  expression of PB1 gene in H5N1: significantly reduced
  expression of PB2 gene in H5N1: significantly reduced
H1N1 WSN [6]; 10 μM
  expression of PA gene in H1N1 WSN: no significant inhibitory effect
  expression of PB1 gene in H1N1 WSN: no significant inhibitory effect
H1N1 WSN (A/WSN/33) [7]
  inflammatory cell infiltration (lung pathology): significantly reduced
IAV; 20 mg/kg/day
  mortality of mice caused by IAV infection: significantly inhibited
H1N1 WSN (A/WSN/33) [10]
  lung injury index of mice caused by H1N1 WSN infection: significantly reduced
[13]
  deaths who took Tamiflu that experienced severe illness or death within 12 hours after taking the drug: 38
H1N1 WSN (A/WSN/33) [12]
  activities of the infected mice: significantly increased
  body temperature drop: significantly inhibited
  body weight drop: significantly inhibited
  discomfort caused by influenza: significantly alleviated
  mice died / mice in group: 9/20
  mortality of mice caused by H1N1 WSN infection: significantly reduced
